Test: xn = mol fraction of the nth substance listed

CCCC[N+](C)(CCCC)CCCC.[Cl-] + OC[C@H]1O[C@@](CO)(O[C@H]2O[C@H](CO)[C@@H](O)[C@H](O)[C@H]2O)[C@@H](O)[C@@H]1O + O
viscosity [mPa·s], 101.3 kPa
Settings | 293.15 K | 298.15 K | 303.15 K | 308.15 K | 313.15 K
x2 = 0, x1 = 0.0003423 | 1.011 | 0.904 | 0.806 | 0.729 | 0.662
x2 = 0, x1 = 0.0007203 | – | – | – | – | 0.672
x2 = 0, x1 = 0.001062 | 1.036 | 0.931 | 0.826 | 0.747 | 0.686
x2 = 0, x1 = 0.00144 | – | – | – | – | 0.695
x2 = 0.0003599, x1 = 0.0003421 | 1.027 | 0.917 | 0.817 | 0.737 | 0.668
x2 = 0.0003616, x1 = 0.00072 | 1.041 | 0.928 | 0.824 | 0.746 | 0.68
x2 = 0.0003631, x1 = 0.001062 | 1.057 | 0.948 | 0.839 | 0.758 | 0.695
x2 = 0.0003647, x1 = 0.001439 | 1.069 | 0.962 | 0.857 | 0.773 | 0.706
x2 = 0.0007214, x1 = 0.000342 | 1.052 | 0.937 | 0.83 | 0.747 | 0.677
x2 = 0.0007247, x1 = 0.0007198 | 1.069 | 0.948 | 0.839 | 0.759 | 0.692
x2 = 0.0007277, x1 = 0.001061 | 1.084 | 0.968 | 0.855 | 0.773 | 0.709
x2 = 0.000731, x1 = 0.001438 | 1.096 | 0.984 | 0.871 | 0.786 | 0.718
x2 = 0.001083, x1 = 0.0003419 | 1.071 | 0.952 | 0.845 | 0.761 | 0.689
x2 = 0.001088, x1 = 0.0007195 | 1.088 | 0.965 | 0.854 | 0.772 | 0.701
x2 = 0.001092, x1 = 0.001061 | 1.105 | 0.994 | 0.872 | 0.785 | 0.718
x2 = 0.001097, x1 = 0.001438 | 1.118 | 1.007 | 0.89 | 0.8 | 0.729
x2 = 0.001444, x1 = 0.0003418 | 1.093 | 0.971 | 0.86 | 0.774 | 0.701
x2 = 0.00145, x1 = 0.0007192 | 1.11 | 0.984 | 0.87 | 0.786 | 0.712
x2 = 0.001456, x1 = 0.001061 | 1.126 | 1.009 | 0.889 | 0.799 | 0.73
x2 = 0.001463, x1 = 0.001437 | 1.141 | 1.025 | 0.908 | 0.816 | 0.741
x2 = 0.001804, x1 = 0.0003416 | 1.115 | 0.987 | 0.875 | 0.788 | 0.713
x2 = 0.001813, x1 = 0.000719 | 1.134 | 1.001 | 0.885 | 0.798 | 0.726
x2 = 0.00182, x1 = 0.00106 | 1.153 | 1.025 | 0.905 | 0.814 | 0.744
x2 = 0.001828, x1 = 0.001437 | 1.166 | 1.042 | 0.925 | 0.829 | 0.76
x2 = 0.002163, x1 = 0.0003415 | 1.137 | 1.006 | 0.89 | 0.802 | 0.725
x2 = 0.002173, x1 = 0.0007187 | 1.155 | 1.02 | 0.901 | 0.811 | 0.734
x2 = 0.002176, x1 = 0.00106 | 1.171 | 1.044 | 0.922 | 0.828 | 0.754
x2 = 0.002192, x1 = 0.001436 | 1.182 | 1.059 | 0.941 | 0.841 | 0.762
x2 = 0.002532, x1 = 0.0003414 | 1.153 | 1.027 | 0.904 | 0.806 | 0.734
x2 = 0.002546, x1 = 0.0007185 | 1.176 | 1.038 | 0.916 | 0.822 | 0.754
x2 = 0.00256, x1 = 0.001436 | 1.203 | 1.075 | 0.957 | 0.859 | 0.775
x2 = 0.002561, x1 = 0.001059 | 1.187 | 1.058 | 0.934 | 0.842 | 0.766

CC(=O)[O-].CC[n+]1ccn(C)c1 + [N-]=C=S.[NH4+]
313.15 K, 101 kPa, x2 = 0
Settings | electrical conductivity [S/m] | viscosity [mPa·s]
– | 0.6 | 56.4

CCCO + C[C@H](N)C(=O)[O-].C[N+](C)(C)CCO
100 kPa, x2 = 0
Settings | viscosity [mPa·s]
288.12 K | 2.19
289.34 K | 2.13
290.54 K | 2.07
291.73 K | 2
292.91 K | 1.95
294.09 K | 1.89
295.27 K | 1.84
296.45 K | 1.78
297.63 K | 1.73
298.8 K | 1.68
299.98 K | 1.63
301.16 K | 1.58
302.33 K | 1.52
303.51 K | 1.48
304.68 K | 1.43
305.86 K | 1.38
307.04 K | 1.34
308.21 K | 1.29

CC(=O)[O-].CC[n+]1ccn(C)c1 + CN(CCO)CCO
101 kPa
Settings | electrical conductivity [S/m] | viscosity [mPa·s]
288.15 K, x1 = 0.2002 | 0.036 | 150.1
288.15 K, x1 = 0.4995 | 0.066 | 174
293.15 K, x1 = 0.4001 | 0.071 | 123.1
298.15 K, x1 = 0.4995 | 0.112 | 97.7
303.15 K, x1 = 0.2002 | 0.065 | 65.1
303.15 K, x1 = 0.5998 | 0.171 | 81.8
303.15 K, x1 = 1 | 0.358 | 102.4
308.15 K, x1 = 0.8999 | 0.384 | 73.4
313.15 K, x1 = 0.4995 | 0.229 | 48.5
313.15 K, x1 = 0.7003 | 0.343 | 52.3
313.15 K, x1 = 0.7998 | 0.401 | 54.1
318.15 K, x1 = 0.1002 | 0.051 | 29.4
318.15 K, x1 = 0.7003 | 0.426 | 42.4
318.15 K, x1 = 0.8999 | 0.598 | 46.3
318.15 K, x1 = 1 | 0.724 | 47.7
323.15 K, x1 = 0.1002 | 0.063 | 23.5
323.15 K, x1 = 1 | 0.883 | 39
328.15 K, x1 = 0.1002 | 0.075 | 18.9
328.15 K, x1 = 0.4995 | 0.414 | 26.5
328.15 K, x1 = 0.5998 | 0.519 | 27.6
333.15 K, x1 = 0.8999 | 1.06 | 25.7
333.15 K, x1 = 1 | 1.25 | 26.7
343.15 K, x1 = 0.4001 | 0.52 | 14.88
348.15 K, x1 = 0.4995 | 0.795 | 13.87
353.15 K, x1 = 0.2002 | 0.331 | 8.91
353.15 K, x1 = 0.5998 | 1.2 | 12.74
353.15 K, x1 = 0.7998 | 1.68 | –

CCCCCCCCCCCC[P+](CC)(CC)CC.N#Cc1ccc[n-]1 + OCCN(CCO)CCO
100 kPa
Settings | electrical conductivity [S/m] | viscosity [mPa·s]
293.15 K, x1 = 0.01 | 0.0023 | –
293.15 K, x1 = 0.035 | 0.0045 | 990
293.15 K, x1 = 0.207 | – | 880
293.15 K, x1 = 0.473 | – | 850
293.15 K, x1 = 0.583 | 0.0111 | –
298.15 K, x1 = 0.051 | – | 652
298.15 K, x1 = 0.207 | – | 585
298.15 K, x1 = 0.809 | – | 506
313.15 K, x1 = 0.051 | – | 189
313.15 K, x1 = 0.207 | – | 186

OCC(F)(F)F + CCCC[n+]1ccn(C)c1.F[P-](F)(F)(F)(F)F
viscosity [mPa·s], 101 kPa
Settings | x1 = 0.4632 | x1 = 0.5646 | x1 = 0.7299 | x1 = 0.8308 | x1 = 0.9417 | x1 = 1
278.15 K | 51.3 | 27.28 | 10.69 | 6.23 | 3.8 | 3.28
283.15 K | 40.66 | 22.32 | 8.93 | 5.29 | 3.26 | 2.81
288.15 K | 32.71 | 18.39 | 7.58 | 4.56 | 2.84 | 2.42
293.15 K | 26.74 | 15.36 | 6.51 | 3.97 | 2.49 | 2.11
298.15 K | 22.17 | 13 | 5.65 | 3.49 | 2.21 | 1.84
303.15 K | 18.63 | 11.13 | 4.95 | 3.09 | 1.96 | 1.62
308.15 K | 15.84 | 9.64 | 4.38 | 2.76 | 1.76 | 1.43
313.15 K | 13.61 | 8.42 | 3.9 | 2.49 | 1.57 | 1.27
318.15 K | 11.81 | 7.42 | 3.49 | 2.25 | 1.41 | 1.13
323.15 K | 10.34 | 6.59 | 3.15 | 2.05 | 1.28 | 1.02
328.15 K | 9.12 | 5.89 | 2.85 | 1.88 | 1.18 | 0.925
333.15 K | 8.1 | 5.3 | 2.62 | 1.73 | 1.07 | 0.824

CC[N+](CC)(CC)CC.[Cl-] + CNCCO
101.3 kPa
Settings | viscosity [mPa·s]
293.15 K, x1 = 0.1413 | 23.7
303.15 K, x1 = 0.1114 | 14.3
308.15 K, x1 = 0.09139 | 11.4
313.15 K, x1 = 0.1413 | 10.3
318.15 K, x1 = 0.1413 | 8.78
323.15 K, x1 = 0.1114 | 7.1
323.15 K, x1 = 0.1413 | 7.56
328.15 K, x1 = 0.09139 | 5.45

CCCO + CS(=O)(=O)[O-].C[N+](C)(CCO)CCO
101 kPa, x2 = 0
Settings | viscosity [mPa·s]
298.15 K | 1.95
303.15 K | 1.73
308.15 K | 1.545
313.15 K | 1.383
318.15 K | 1.247
323.15 K | 1.136

Source: the CheMixHub ionic liquid set
